In ChEMBL document CHEMBL6092221, “Discovery of a Novel Macrocyclic Noncovalent CDK7 Inhibitor for Cancer Therapy” (J Med Chem, 2024):

Columns and labels:
[1] = Cmax in human HCC70 cells xenografted in female nu/nu mouse plasma at 10 mg/kg, po administered once daily; format: ADME, organism-based
[2] = Clearance in mouse at 1 mg/kg, iv; format: ADME, organism-based; conditions: in vivo
[3] = target: Cyclin-dependent kinase 14/Cyclin-Y (Homo sapiens, UniProt O94921); experiment: Inhibition of CDK14/Cyclin Y (unknown origin); format: protein-complex assay
[4] = AUC(0 to t) in human HCC70 cells xenografted in female nu/nu mouse plasma at 10 mg/kg, po administered once daily; format: ADME, organism-based
[5] = AUC(0 to t) in rat at 1 mg/kg, iv; format: ADME, organism-based; conditions: in vivo
OVCAR-3 [6] = experiment: Antitumor activity against human OVCAR-3 cells xenografted in female Balb/c nude mouse assessed as tumor growth inhibition at 2 mg/kg, po administered once daily and measured on day 22; format: functional; conditions: OVCAR-3, 528 h, time 22 day, read-out: TGI
[7] = target: Cyclin-Y/Cyclin-dependent kinase 16 (Homo sapiens) (UniProt Q00536+Q8ND76); experiment: Inhibition of CDK16/CyclinY (unknown origin) at 200 nM relative to control; values are per cent of control
[8] = target: Cyclin-dependent kinase 4/cyclin D1 (Homo sapiens) (UniProt P11802+P24385); experiment: Inhibition of CDK4/CyclinD1 (unknown origin) at 200 nM relative to control; values are per cent of control
[9] = Oral bioavailability in female Balb/c nude mouse at 5 mg/kg; format: ADME, organism-based; conditions: in vivo
[10] = Cmax in human HCC70 cells xenografted in female nu/nu mouse plasma at 3 mg/kg, po administered once daily; format: ADME, organism-based
[11] = Oral bioavailability in mouse at 5 mg/kg; format: ADME, organism-based; conditions: in vivo
[12] = Cmax in human OVCAR-3 cells xenografted in female Balb/c nude mouse plasma at 20 mg/kg, po administered once daily; format: ADME, organism-based
[13] = Half life in human HCC70 cells xenografted in female nu/nu mouse plasma at 3 mg/kg, po administered once daily; format: ADME, organism-based
[14] = Drug concentration in rat small intestine at 5 mg/kg, po measured after 8 hrs; format: ADME, organism-based; conditions: read-out: Ct
[15] = target: T1, Ribosomal protein S6 kinase alpha-3 (Homo sapiens, UniProt P51812); experiment: Inhibition of RSK2 (unknown origin) at 200 nM relative to control; values are per cent of control
[16] = Toxicity in female Balb/c nude mouse xenografted with human OVCAR-3 cells assessed as body weight loss at 2 to 20 mg/kg, po administered once daily and measured for 3 weeks; format: organism-based; conditions: in vivo, 504 h, dose 2-20 mg/kg
HCC70 = experiment: Antitumor activity against human HCC70 cells xenografted in female nu/nu mouse assessed as tumor growth inhibition at 10 mg/kg, po administered once daily and measured for 4 weeks; format: functional; conditions: HCC70, 672 h, read-out: TGI
[17] = target: CDK4/Cyclin D3 (Homo sapiens) (UniProt P11802+P30281); experiment: Inhibition of CDK4/Cyclin D3 (unknown origin) at 200 nM relative to control; values are per cent of control
[18] = AUC(0 to t) in mouse at 1 mg/kg, iv; format: ADME, organism-based; conditions: in vivo
[19] = Cmax in human HCC70 cells xenografted in female nu/nu mouse plasma at 1 mg/kg, po administered once daily; format: ADME, organism-based
[20] = target: T1, Ribosomal protein S6 kinase alpha-3; experiment: Inhibition of RSK2 (unknown origin)
[21] = Half life in dog at 2 mg/kg, po; format: ADME, organism-based, Canis lupus familiaris; conditions: in vivo
[22] = Permeability in human Caco-2 cells; format: ADME, cell-based; conditions: read-out: permeability
[23] = Half life in rat at 1 mg/kg, iv; format: ADME, organism-based; conditions: in vivo
[24] = AUC (0 to t) in human OVCAR-3 cells xenografted in female Balb/c nude mouse plasma at 5 mg/kg, po administered once daily; format: ADME, organism-based
[25] = AUC(0 to t) in mouse at 5 mg/kg, po; format: ADME, organism-based; conditions: in vivo
CDK18/Cyclin Y = CDK18/Cyclin Y (Homo sapiens, UniProt Q07002+Q8ND76); experiment: Inhibition of CDK18/Cyclin Y (unknown origin); format: protein-complex assay
[26] = Half life in Sprague-Dawley rat at 30 mg/kg, po; format: ADME, organism-based; conditions: in vivo
[27] = target: Mitogen-activated protein kinase 7 (Homo sapiens, UniProt Q13164); experiment: Inhibition of Erk5 (unknown origin)
[28] = Drug concentration in rat plasma at 5 mg/kg, po measured after 2 hrs; format: ADME, organism-based
[29] = Drug concentration in rat plasma at 5 mg/kg, po measured after 0.5 hrs; format: ADME, organism-based
[30] = Half life in Sprague-Dawley rat at 100 mg/kg, po; format: ADME, organism-based; conditions: in vivo
[31] = Half life in human HCC70 cells xenografted in female nu/nu mouse plasma at 1 mg/kg, po administered once daily; format: ADME, organism-based
[32] = Volume of distribution at steady state in female Balb/c nude mouse at 1 mg/kg, iv; format: ADME, organism-based; conditions: in vivo, read-out: Vdss
[33] = target: Serine/threonine-protein kinase TAO1 (Homo sapiens, UniProt Q7L7X3); experiment: Inhibition of TAOK1 (unknown origin)
[34] = Cmax in rat at 5 mg/kg, po; format: ADME, organism-based; conditions: in vivo
[35] = Plasma protein binding in human assessed as unbound fraction; format: ADME, cell-free
[36] = Metabolic stability in rat liver microsomes assessed as intrinsic clearance; format: ADME, Microsome; conditions: read-out: CLH
[37] = Drug concentration in rat small intestine at 5 mg/kg, po measured after 0.5 hrs; format: ADME, organism-based; conditions: read-out: Ct
[38] = Cmax in human OVCAR-3 cells xenografted in female Balb/c nude mouse plasma at 10 mg/kg, po administered once daily; format: ADME, organism-based
[39] = Half life in human HCC70 cells xenografted in female nu/nu mouse plasma at 10 mg/kg, po administered once daily; format: ADME, organism-based
OVCAR-3 [40] = experiment: Antitumor activity against human OVCAR-3 cells xenografted in female Balb/c nude mouse assessed as tumor growth inhibition at 10 mg/kg, po administered once daily and measured on day 22; format: functional; conditions: OVCAR-3, 528 h, time 22 day, read-out: TGI
[41] = target: Mitogen-activated protein kinase 15 (Homo sapiens, UniProt Q8TD08); experiment: Inhibition of Erk8 (unknown origin)
[42] = Clearance in dog at 0.2 mg/kg, iv; format: ADME, organism-based, Canis lupus familiaris; conditions: in vivo
[43] = Drug concentration in rat plasma at 5 mg/kg, po measured after 8 hrs; format: ADME, organism-based
[44] = target: Serine/threonine-protein kinase TAO1 (Homo sapiens) (UniProt Q7L7X3); experiment: Inhibition of TAOK1 (unknown origin) at 200 nM relative to control; values are per cent of control
[45] = Half life in human OVCAR-3 cells xenografted in female Balb/c nude mouse plasma at 10 mg/kg, po administered once daily; format: ADME, organism-based

T1 sequence (P51812 whole entry): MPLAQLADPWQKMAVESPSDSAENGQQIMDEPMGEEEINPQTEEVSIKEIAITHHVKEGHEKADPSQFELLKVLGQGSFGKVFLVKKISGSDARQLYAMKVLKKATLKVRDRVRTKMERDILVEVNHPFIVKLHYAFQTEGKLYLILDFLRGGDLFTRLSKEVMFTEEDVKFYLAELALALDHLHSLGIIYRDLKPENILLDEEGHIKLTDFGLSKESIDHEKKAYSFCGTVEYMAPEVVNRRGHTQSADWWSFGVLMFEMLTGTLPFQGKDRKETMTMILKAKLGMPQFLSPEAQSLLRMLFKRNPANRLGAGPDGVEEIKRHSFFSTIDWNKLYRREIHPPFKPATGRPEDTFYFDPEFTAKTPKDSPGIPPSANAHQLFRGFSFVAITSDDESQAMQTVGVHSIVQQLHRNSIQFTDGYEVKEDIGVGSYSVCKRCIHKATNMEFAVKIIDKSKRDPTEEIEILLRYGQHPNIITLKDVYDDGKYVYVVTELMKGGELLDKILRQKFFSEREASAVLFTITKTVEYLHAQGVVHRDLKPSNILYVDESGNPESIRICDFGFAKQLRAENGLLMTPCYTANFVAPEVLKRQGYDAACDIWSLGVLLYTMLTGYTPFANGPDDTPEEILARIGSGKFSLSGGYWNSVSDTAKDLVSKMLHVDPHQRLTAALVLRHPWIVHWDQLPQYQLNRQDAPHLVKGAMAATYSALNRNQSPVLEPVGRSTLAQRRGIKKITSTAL
Chain of Cyclin-dependent kinase 14/Cyclin-Y (O94921 whole entry): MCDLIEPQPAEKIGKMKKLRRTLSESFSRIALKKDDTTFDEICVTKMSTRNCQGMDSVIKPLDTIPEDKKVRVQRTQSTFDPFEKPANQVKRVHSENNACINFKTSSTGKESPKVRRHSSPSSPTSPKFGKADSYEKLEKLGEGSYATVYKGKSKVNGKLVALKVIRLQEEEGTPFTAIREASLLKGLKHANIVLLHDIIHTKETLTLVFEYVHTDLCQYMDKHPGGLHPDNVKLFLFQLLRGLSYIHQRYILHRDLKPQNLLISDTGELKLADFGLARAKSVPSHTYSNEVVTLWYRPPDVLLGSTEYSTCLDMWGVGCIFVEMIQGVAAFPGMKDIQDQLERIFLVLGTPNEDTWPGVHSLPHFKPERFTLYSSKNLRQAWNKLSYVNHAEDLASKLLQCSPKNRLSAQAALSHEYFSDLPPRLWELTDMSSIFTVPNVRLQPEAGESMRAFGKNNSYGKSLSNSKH
Chain of Cyclin-dependent kinase 14/Cyclin-Y (Q8ND76 whole entry, further chain): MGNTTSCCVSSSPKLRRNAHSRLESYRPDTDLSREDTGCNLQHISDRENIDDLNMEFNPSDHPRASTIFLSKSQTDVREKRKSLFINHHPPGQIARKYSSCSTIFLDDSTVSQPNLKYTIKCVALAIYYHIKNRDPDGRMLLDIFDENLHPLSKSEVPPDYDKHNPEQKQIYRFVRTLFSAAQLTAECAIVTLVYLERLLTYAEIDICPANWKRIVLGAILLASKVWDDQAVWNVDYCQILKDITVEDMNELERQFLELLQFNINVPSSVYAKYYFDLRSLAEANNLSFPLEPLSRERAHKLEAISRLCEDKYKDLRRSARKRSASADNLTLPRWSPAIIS
Chain of CDK18/Cyclin Y (Q07002 whole entry): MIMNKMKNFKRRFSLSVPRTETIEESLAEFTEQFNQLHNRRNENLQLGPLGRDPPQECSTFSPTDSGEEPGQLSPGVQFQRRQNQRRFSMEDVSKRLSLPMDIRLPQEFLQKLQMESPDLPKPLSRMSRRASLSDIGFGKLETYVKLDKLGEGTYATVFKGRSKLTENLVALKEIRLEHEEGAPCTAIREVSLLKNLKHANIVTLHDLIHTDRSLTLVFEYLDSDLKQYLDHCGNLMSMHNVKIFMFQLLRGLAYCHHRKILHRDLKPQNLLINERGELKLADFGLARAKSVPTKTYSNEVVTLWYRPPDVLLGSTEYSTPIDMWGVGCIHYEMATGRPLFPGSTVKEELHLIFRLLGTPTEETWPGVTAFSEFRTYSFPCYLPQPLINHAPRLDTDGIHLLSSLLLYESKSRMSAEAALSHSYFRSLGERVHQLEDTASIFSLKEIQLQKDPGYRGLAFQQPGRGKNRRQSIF
Chain of CDK18/Cyclin Y (Q8ND76 whole entry): as the sequence (Q8ND76 whole entry, further chain) above
Chain of Mitogen-activated protein kinase 15 (Q8TD08 whole entry): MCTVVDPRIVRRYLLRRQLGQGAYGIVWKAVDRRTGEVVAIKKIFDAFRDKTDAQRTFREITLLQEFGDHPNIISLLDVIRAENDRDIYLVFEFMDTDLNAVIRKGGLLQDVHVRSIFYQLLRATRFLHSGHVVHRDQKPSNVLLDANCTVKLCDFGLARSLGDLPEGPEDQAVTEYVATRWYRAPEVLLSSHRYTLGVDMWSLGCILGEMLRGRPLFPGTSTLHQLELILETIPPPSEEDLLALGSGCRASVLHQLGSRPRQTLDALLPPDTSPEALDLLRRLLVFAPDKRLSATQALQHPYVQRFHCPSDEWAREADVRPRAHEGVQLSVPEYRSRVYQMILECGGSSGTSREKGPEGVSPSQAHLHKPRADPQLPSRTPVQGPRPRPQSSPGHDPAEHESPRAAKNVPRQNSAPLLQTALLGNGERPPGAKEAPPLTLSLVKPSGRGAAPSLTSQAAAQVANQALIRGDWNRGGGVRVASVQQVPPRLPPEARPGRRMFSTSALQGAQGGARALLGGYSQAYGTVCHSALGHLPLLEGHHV
Chain of Serine/threonine-protein kinase TAO1 (Homo sapiens) (Q7L7X3 whole entry): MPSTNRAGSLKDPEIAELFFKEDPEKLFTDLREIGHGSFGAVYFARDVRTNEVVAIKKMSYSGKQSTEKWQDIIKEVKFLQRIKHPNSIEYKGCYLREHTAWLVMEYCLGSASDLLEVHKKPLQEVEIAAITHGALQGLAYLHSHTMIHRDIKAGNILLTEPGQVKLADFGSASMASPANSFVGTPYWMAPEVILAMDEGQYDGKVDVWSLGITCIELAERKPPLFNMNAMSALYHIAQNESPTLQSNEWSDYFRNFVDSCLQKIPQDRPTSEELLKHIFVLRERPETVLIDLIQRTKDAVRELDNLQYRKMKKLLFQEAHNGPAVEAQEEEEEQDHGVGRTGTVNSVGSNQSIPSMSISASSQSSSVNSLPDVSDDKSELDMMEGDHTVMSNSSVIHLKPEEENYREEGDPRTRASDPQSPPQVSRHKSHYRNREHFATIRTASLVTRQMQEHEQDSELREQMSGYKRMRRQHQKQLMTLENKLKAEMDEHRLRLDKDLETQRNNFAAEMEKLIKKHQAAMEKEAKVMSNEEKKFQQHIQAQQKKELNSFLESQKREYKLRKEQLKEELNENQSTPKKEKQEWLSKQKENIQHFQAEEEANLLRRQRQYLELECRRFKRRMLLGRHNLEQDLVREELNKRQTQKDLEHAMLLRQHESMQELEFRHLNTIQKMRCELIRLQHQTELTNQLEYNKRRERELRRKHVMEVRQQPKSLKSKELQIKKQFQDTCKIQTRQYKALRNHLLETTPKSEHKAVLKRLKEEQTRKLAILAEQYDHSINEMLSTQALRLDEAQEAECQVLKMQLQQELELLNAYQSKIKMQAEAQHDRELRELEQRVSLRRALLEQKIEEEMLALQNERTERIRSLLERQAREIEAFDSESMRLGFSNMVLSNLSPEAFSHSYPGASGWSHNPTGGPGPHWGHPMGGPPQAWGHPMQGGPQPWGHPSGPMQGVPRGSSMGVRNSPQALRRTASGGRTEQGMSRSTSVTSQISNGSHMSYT
Chain of Serine/threonine-protein kinase TAO1 (Q7L7X3 whole entry): as above
Chain of Mitogen-activated protein kinase 7 (Q13164 whole entry): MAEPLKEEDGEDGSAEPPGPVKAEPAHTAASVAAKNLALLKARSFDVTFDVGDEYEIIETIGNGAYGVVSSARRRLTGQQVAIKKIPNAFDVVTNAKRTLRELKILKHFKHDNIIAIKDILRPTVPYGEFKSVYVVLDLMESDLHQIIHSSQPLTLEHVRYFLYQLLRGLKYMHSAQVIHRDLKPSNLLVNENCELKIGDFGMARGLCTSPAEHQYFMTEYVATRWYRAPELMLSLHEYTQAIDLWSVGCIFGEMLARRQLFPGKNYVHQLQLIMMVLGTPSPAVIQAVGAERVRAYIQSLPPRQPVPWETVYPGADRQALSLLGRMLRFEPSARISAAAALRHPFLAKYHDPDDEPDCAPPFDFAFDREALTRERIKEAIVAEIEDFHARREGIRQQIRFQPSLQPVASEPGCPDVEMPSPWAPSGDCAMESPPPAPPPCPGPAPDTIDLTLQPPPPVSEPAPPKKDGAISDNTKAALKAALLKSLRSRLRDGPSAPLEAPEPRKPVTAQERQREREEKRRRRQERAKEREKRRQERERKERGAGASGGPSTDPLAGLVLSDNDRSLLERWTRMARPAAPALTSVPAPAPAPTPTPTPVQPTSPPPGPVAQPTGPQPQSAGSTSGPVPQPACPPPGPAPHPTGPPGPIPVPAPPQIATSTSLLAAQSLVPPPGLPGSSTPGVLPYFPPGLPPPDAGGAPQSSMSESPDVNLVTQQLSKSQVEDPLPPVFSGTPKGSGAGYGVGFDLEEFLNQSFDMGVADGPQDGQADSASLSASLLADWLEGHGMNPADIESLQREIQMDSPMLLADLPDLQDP

SMILES: CN1CC(F)(F)CCN(C)[C@H]2CC[C@@H](C2)Nc2ncc(C(F)(F)F)c(n2)-c2c[nH]c3c(P(C)(C)=O)c(ccc23)C1=O
- Cmax [1]: 401 ng/mL
- clearance [2]: 52.6 mL/min/kg
- IC50 [3]: 16.1 nM
- AUC(0-t) [4]: 812 ng·h/mL
- AUC(0-t) [5]: 415 ng·h/mL
- inhibition in vivo at 2 mg/kg (OVCAR-3 [6]): 110%
- residual activity [7]: 0.8%
- residual activity [8]: 2.7%
- bioavailability [9]: 78.7%
- Cmax [10]: 130 ng/mL
- bioavailability [11]: 78.7%
- Cmax [12]: 1690 ng/mL
- half-life [13]: 1.6 h
- concentration at 8 h [14]: 67 ng/g
- residual activity [15]: 28%
- Activity [16]: Non-toxic
- inhibition in vivo at 10 mg/kg (HCC70): 175%
- residual activity [17]: 17%
- AUC(0-t) [18]: 315 ng·h/mL
- Cmax [19]: 75 ng/mL
- IC50 [20]: 291 nM
- half-life [21]: 4.4 h
- Papp [22]: 3.69 ×10⁻⁶ cm/s
- half-life [23]: 1.2 h
- AUC(0-t) [24]: 694 ng·h/mL
- AUC(0-t) [25]: 938 ng·h/mL
- IC50 (CDK18/Cyclin Y): 4.2 nM
- half-life [26]: 7.8 h
- IC50 [27]: 26.5 nM
- concentration at 2 h [28]: 68.8 ng/mL
- concentration at 0.5 h [29]: 33.9 ng/mL
- half-life [30]: 5.5 h
- half-life [31]: 2 h
- Vd [32]: 1.7 L/kg
- IC50 [33]: 546 nM
- Cmax [34]: 165 ng/mL
- fraction unbound [35]: 0.043
- CLint scaled [36]: 44.9 mL/min/kg
- concentration at 0.5 h [37]: 2240 ng/g
- Cmax [38]: 580 ng/mL
- half-life [39]: 1.7 h
- inhibition in vivo at 10 mg/kg (OVCAR-3 [40]): 111%
- IC50 [41]: 7.9 nM
- clearance [42]: 1.2 mL/min/kg
- concentration at 8 h [43]: 3.5 ng/mL
- residual activity [44]: 24%
- half-life [45]: 2 h
